Measurements reported in PMC6268726, “Inhibition of 11β-HSD1 by Tetracyclic Triterpenoids from Euphorbia kansui” (Molecules, 2012).

Legend:
[1] = molecular target: T1, mouse 11β-HSD1 (Mus musculus, UniProt P50172); assay: Inhibition of mouse 11β-HSD1, scintillation proximity assay (SPA) with microsomes from transfected HEK-293 cells; type: biochemical; conditions: for IC50: microsomes, NADPH, [3H]cortisone, n = 2; for Mouse HSD2/HSD1: selectivity ratio IC50 mouse 11β-HSD2 / mouse 11β-HSD1
T1 construct: the full-length cDNAs of human or marine 11β-HSD1 and 11β-HSD2 were isolated from the cDNA libraries; made in house; host or cells: HEK-293 (stably transfected, pcDNA3); microsomal fraction
Source text: (§1) Glucocorticoid hormones play important roles in many biological and physiological processes, including regulation of energy metabolism; inflammatory, immune and stress responses; and cardiovascular homeostasis. The action of glucocorticoid on target tissue is not inevitable dependent on the circulating levels, but is regulated in a tissue-specific manner by the 11β-hydroxysteroid dehydrogenase enzymes (11β-HSD1 and 11β-HSD2), which catalyze the interconversion of active 11-hydroxyglucocorticoids (cortisol in human and corticosterone in rodent) and their respective inert 11-keto forms (cortisone in human and 11-dehyfrocorticosterone in rodent). […] 11β-HSD2 is predominantly expressed in aldosterone target cells such as kidney and colon, where it catalyses the inactivation of glucocorticoids, thereby preventing excessive activation of the mineralocorticoid receptor and sequelae including sodium retention, hypokalemia, and hypertension. We tested the inhibitory effect of compounds on both human and mouse 11β-HSD1 and 11β-HSD2. All tests were done duplicate with glycyrrhizininc acid (human and mouse 11β-HSD1, human 11β-HSD2) and carbenoxolone (mouse 11β-HSD2) as positive control. IC50 (X […] S.D., n = 2) values were calculated by using Prism Version 4 (GraphPad Software, San Diego, CA, USA.).
(§2) Inhibition of compounds on human or mouse 11β-HSD1 and 11β-HSD2 enzymatic activities were determined by the scintillation proxitimity assay (SPA) using microsomes containing 11β-HSD1 or 11β-HSD2 according to the previous studies. Briefly the full-length cDNAs of human or marine 11β-HSD1 and 11β-HSD2 were isolated from the cDNA libraries provided by NIH Mammalian Gene Collection and cloned into pcDNA3 expression vector. HEK-293 cells were transfected with the pcDNA3-dericed expression plasmid and selected by cultivation in the presence of 700 μg/mL of G418. The microsomal fraction overexpressing 11β-HSD1 or 11β-HSD2 was prepared from the HEK-293 cells stable transfected with either 11β-HSD1 or 11β-HSD2 and used as the enzyme source for SPA. Microsomes containing human or mouse 11β-HSD1 was incubated with NADPH and [3H]cortisone, then the product, [3H]cortisol was specifically captured by a monoclonal antibody coupled to protein A-coated SPA beads. The 11β-HSD2 screening was performed by incubating 11β-HSD2 microsomes with [3H]cortisol and NAD^+ and monitoring substrate disappearance. IC50 (X ± S.D., n = 2) values were calculated by using Prism Version 4 (GraphPad Software, San Diego, CA, USA.) with glycyrrhizininc acid and carbenoxolone as positive control.

[2] = molecular target: T2, mouse 11β-HSD2 (Mus musculus, UniProt P51661); assay: Inhibition of mouse 11β-HSD2, SPA with microsomes from transfected HEK-293 cells; type: biochemical; conditions: [3H]cortisol, NAD+, n = 2
T2 construct: the full-length cDNAs of human or marine 11β-HSD1 and 11β-HSD2 were isolated from the cDNA libraries; made in house; host or cells: HEK-293 (stably transfected, pcDNA3); microsomal fraction
T2 sequence (P51661 1-386): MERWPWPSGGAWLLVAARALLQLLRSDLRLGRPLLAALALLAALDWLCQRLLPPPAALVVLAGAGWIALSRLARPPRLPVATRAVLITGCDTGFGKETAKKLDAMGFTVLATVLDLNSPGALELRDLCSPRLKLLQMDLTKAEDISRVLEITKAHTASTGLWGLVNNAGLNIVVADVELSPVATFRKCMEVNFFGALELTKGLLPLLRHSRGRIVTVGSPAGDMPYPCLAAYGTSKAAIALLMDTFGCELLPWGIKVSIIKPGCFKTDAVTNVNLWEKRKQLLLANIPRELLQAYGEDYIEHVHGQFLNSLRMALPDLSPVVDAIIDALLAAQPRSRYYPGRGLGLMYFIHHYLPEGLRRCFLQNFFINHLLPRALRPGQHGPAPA
Source text: as §1, §2

[3] = molecular target: T3, human 11β-HSD1 (Homo sapiens, UniProt P28845); assay: Inhibition of human 11β-HSD1, SPA with microsomes from transfected HEK-293 cells; type: biochemical; conditions: for IC50: microsomes, NADPH, [3H]cortisone, n = 2; for Human HSD2/HSD1: selectivity ratio IC50 human 11β-HSD2 / human 11β-HSD1
T3 construct: the full-length cDNAs of human or marine 11β-HSD1 and 11β-HSD2 were isolated from the cDNA libraries; made in house; host or cells: HEK-293 (stably transfected, pcDNA3); microsomal fraction
Source text: as §1, §2

[4] = molecular target: T4, human 11β-HSD2 (Homo sapiens, UniProt P80365); assay: Inhibition of human 11β-HSD2, SPA with microsomes from transfected HEK-293 cells; type: biochemical; conditions: [3H]cortisol, NAD+, n = 2
T4 construct: the full-length cDNAs of human or marine 11β-HSD1 and 11β-HSD2 were isolated from the cDNA libraries; made in house; host or cells: HEK-293 (stably transfected, pcDNA3); microsomal fraction
T4 sequence (P80365 1-405): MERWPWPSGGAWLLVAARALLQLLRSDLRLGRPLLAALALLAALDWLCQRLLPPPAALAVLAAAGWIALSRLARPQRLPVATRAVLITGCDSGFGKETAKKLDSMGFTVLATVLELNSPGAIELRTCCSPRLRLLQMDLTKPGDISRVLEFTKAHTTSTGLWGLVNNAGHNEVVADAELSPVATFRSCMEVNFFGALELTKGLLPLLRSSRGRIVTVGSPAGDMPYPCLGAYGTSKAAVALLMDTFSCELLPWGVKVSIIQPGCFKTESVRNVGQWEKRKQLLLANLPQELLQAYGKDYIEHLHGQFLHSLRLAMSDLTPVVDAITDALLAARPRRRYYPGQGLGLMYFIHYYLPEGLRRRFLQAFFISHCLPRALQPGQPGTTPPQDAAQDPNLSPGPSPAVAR
Source text: as §1, §2

T3 sequence (P28845 whole entry): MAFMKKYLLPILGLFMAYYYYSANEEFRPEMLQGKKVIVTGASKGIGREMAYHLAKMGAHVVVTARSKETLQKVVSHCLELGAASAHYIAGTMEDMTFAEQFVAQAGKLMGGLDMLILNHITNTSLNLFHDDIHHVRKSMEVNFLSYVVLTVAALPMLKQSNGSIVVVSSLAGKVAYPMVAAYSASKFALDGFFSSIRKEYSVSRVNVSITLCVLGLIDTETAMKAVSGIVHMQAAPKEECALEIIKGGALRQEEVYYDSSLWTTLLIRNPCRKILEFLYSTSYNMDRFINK
T1 sequence (P50172 whole entry): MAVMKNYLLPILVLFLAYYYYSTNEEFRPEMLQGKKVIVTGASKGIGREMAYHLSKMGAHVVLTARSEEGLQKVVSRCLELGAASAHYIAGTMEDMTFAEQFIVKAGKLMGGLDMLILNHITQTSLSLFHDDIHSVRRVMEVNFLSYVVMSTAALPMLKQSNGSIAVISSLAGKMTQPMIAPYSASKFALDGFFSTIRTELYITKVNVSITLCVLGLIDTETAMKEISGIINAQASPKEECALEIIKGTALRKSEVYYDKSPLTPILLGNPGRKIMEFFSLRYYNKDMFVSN

SMILES | IC50 [1] [µM] | Mouse HSD2/HSD1 [1] | IC50 [2] [µM] | IC50 [3] [µM] | Human HSD2/HSD1 [3] | IC50 [4] [µM] | melting point [°C]
C=C(CC[C@](C)(O)[C@@H]1CC[C@]2(C)C3CCC4C(C)(C)[C@@H](O)CC[C@]4(C)C3CC[C@@]12C)C(C)C (stereo partly drawn) [Compound 1, Euphane-3β,20-dihydroxy-24-ene] | 0.0784 | >12748 | > 1000 | 0.0349 | 234.6 | 8.18 | –
CC(C)=CCC[C@@H](C)[C@@H]1CC[C@]2(C)C(=O)[C@]3(CC[C@@]12C)[C@@H](O)CC1C(C)(C)[C@@H](O)CC[C@@]13C (stereo partly shown) [Compound 2, Kansuinone] | 1.08 | >928 | > 1000 | 1.11 | 2.35 | 2.63 | –
CC(C)=CCC[C@@H](C)[C@@H]1CC[C@]2(C)C3=C(CC[C@@]12C)[C@@]1(C)CC[C@H](O)C(C)(C)[C@@H]1CC3 [Compound 3, Euphol] | 0.0805 | >12419 | > 1000 | 0.0161 | 24.6 | 0.395 | –
CC(C)=CCCC(C)C1CCC2(C)C3=C(CCC12C)C1(C)CCC(O)C(C)(C)C1CC3=O (stereo not shown) [Compound 4, Kansenone] | 0.0134 | >74850 | > 1000 | 0.00281 | 38 | 0.107 | –
C=C(C)[C@@H](O)CC[C@@H](C)[C@@H]1CC[C@]2(C)C3=C(CC[C@@]12C)[C@@]1(C)CC[C@H](O)C(C)(C)C1CC3 (stereo partly drawn) [Compound 5, (24R)-Eupha-8,25-diene-3β,24-diol] | 0.0495 | >20218 | > 1000 | 0.0265 | 63.7 | 1.69 | –
C[C@H](C/C=C/C(C)(C)O)[C@@H]1CC[C@]2(C)C3=C(CC[C@@]12C)[C@@]1(C)CC[C@H](O)C(C)(C)C1CC3 (stereo partly drawn) [Compound 6, (20R,23E)-Eupha-8,23-diene-3β,25-diol] | 0.295 | >3393 | > 1000 | 0.016 | 41.7 | 0.666 | 132 to 133
